According to patent publication US10100022B2, “Sphingosine kinase inhibitors” (University of Virginia Patent Foundation, priority 2014, dated 2018):
pKi: −log10 of the molar value. Where a name gives a salt, the structure may show the parent alone.

Legend:
[1] = target: T1, human sphingosine kinase type 1 (hSPHK1) (Homo sapiens, UniProt Q9NYA1); test: Sphingosine kinase assay, recombinant human SPHK1 ([32P]S1P product, scintillation counting); type: biochemical; details: read-out: activity hSPHK1 (range estimate of KI)
T1 construct: made in house; host or cells: Sf9 insect cells (baculovirus)
T1 sequence (Q9NYA1 whole entry): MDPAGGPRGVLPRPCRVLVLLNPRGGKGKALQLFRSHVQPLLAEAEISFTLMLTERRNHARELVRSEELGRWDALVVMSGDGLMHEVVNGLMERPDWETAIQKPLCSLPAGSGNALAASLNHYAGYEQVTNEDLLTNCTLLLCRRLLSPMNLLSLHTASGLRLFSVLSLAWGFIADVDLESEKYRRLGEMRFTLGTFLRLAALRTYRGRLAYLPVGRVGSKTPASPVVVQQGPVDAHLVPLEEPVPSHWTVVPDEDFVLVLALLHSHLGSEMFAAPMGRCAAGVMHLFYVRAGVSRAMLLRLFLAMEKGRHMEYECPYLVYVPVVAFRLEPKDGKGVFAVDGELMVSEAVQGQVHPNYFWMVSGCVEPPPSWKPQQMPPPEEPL
Method: (§1) Recombinant baculovirus encoding human sphingosine kinase type 1 (SPHK1) was used to infect Sf9 insect cells and after 2-5 days, cleared lysates were prepared and used without further purification. Human SPHK2, which was partially purified from baculovirus-infected Sf9 cell lysates, was purchased from a commercial source. Sphingosine kinase assays were performed using standard protocols. Product [^32P]S1P was recovered by binding to cation exchange paper and quantified by scintillation counting.

[2] = target: T2, human sphingosine kinase type 2 (hSPHK2) (Homo sapiens, UniProt Q9NRA0); test: Sphingosine kinase assay, recombinant human SPHK2 ([32P]S1P product, scintillation counting); type: biochemical; details: read-out: activity hSPHK2 (range estimate of KI)
T2 construct: purchased; host or cells: Sf9 insect cells (baculovirus)
T2 sequence (Q9NRA0 1-654): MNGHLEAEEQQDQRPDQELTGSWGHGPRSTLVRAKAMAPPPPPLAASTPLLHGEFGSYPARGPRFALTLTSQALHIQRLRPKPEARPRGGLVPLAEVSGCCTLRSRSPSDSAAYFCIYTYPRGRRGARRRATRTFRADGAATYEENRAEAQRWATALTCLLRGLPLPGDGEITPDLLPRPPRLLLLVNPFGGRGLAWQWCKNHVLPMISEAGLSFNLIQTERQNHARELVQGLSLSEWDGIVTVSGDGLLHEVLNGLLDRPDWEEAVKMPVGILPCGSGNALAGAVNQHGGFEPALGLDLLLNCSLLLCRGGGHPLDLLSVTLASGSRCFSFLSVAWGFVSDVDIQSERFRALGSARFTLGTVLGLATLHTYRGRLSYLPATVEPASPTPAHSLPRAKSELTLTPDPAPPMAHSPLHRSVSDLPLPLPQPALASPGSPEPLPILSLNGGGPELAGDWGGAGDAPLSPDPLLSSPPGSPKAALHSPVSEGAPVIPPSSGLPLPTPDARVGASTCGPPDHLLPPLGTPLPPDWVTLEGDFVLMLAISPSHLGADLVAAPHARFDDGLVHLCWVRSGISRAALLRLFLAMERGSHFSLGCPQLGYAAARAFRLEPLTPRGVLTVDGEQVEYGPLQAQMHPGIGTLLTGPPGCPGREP
Method: as §1

| Compound | pKi [1] | pKi [2] |
| --- | --- | --- |
| CCCCCCCCCCn1ccc2ccc(-c3noc([C@@H]4CCCN4C(=N)N)n3)cc21 [Compound 18A, (S)-amino(2-(3-(1-decyl-1H-indol-6-yl)-1,2,4-oxadiazol-5-yl)pyrrolidin-1-yl)methaniminium chloride] | < 5.00 | 5.00 to 6.00 |
| CCCCCCCCOc1ccc(-c2noc([C@@H]3CC(F)(F)CN3C(=N)N)n2)cc1C(F)(F)F [Compound 19A, (S)-amino(4,4-difluoro-2-(3-(4-(octyloxy)-3-(trifluoromethyl)phenyl)-1,2,4-oxadiazol-5-yl)pyrrolidin-1-yl)methaniminium chloride] | < 5.00 | < 5.00 |
| CCCCCCCCOc1ccc(-c2noc([C@@H]3[C@@H](CO)CCN3C(=N)N)n2)cc1C(F)(F)F [Compound 20a, 2,2,2-trifluoroacetate] | > 6.00 | > 6.00 |
| CCCCCCCCOc1ccc(-c2noc([C@@H]3C=CCN3C(=N)N)n2)cc1C(F)(F)F [Compound 21A, (S)-amino(2-(3-(4-(octyloxy)-3-(trifluoromethyl)phenyl)-1,2,4-oxadiazol-5-yl)-2,5-dihydro-1H-pyrrol-1-yl)methaniminium chloride] | < 5.00 | > 6.00 |
| N=C(N)N1CC[C@H](O)[C@H]1c1nc(-c2ccc(OCCCCc3ccc(C(F)(F)F)cc3)c(C(F)(F)F)c2)no1 [Compound 25A, amino((2S,3S)-3-hydroxy-2-(3-(3-(trifluoromethyl)-4-(4-(4-(trifluoromethyl)phenyl)butoxy)phenyl)-1,2,4-oxadiazol-5-yl)pyrrolidin-1-yl)methaniminium chloride] | > 6.00 | > 6.00 |
| N=C(N)N1CCC[C@H]1c1nc(-c2ccc(OCCCCc3ccc(C(F)(F)F)cc3)c(C(F)(F)F)c2)no1 [Compound 26A, (S)-amino(2-(3-(3-(trifluoromethyl)-4-(4-(4-(trifluoromethyl)phenyl)butoxy)phenyl)-1,2,4-oxadiazol-5-yl)pyrrolidin-1-yl)methaniminium chloride] | < 5.00 | > 6.00 |
| N=C(N)N1CC[C@H](O)[C@H]1c1nc(-c2ccc(OCCCc3ccc4c(c3)OCCO4)c(C(F)(F)F)c2)no1 [Compound 27A] | < 5.00 | 5.00 to 6.00 |
| N=C(N)N1CC[C@H](O)[C@H]1c1nc(-c2ccc(OCCCc3ccc(Cl)c(Cl)c3)c(C(F)(F)F)c2)no1 [Compound 28A] | 5.00 to 6.00 | > 6.00 |
| N=C(N)N1CCC[C@H]1c1nc(-c2ccc(OCCCc3ccc4c(c3)OCCO4)c(C(F)(F)F)c2)no1 [Compound 29A, (S)-amino(2-(3-(4-(3-(2,3-dihydrobenzo[b][1,4]dioxin-6-yl)propoxy)-3-(trifluoromethyl)phenyl)-1,2,4-oxadiazol-5-yl)pyrrolidin-1-yl)methaniminium chloride] | < 5.00 | < 5.00 |
| N=C(N)N1CCC[C@H]1c1nc(-c2ccc(OCCCc3ccc(Cl)c(Cl)c3)c(C(F)(F)F)c2)no1 [Compound 30A, (S)-amino(2-(3-(4-(3-(3,4-dichlorophenyl)propoxy)-3-(trifluoromethyl)phenyl)-1,2,4-oxadiazol-5-yl)pyrrolidin-1-yl)methaniminium chloride] | < 5.00 | > 6.00 |
| N=C(N)N1C[C@H](O)C[C@H]1c1nc(-c2ccc(OCCCc3ccc(Cl)c(Cl)c3)c(C(F)(F)F)c2)no1 [Compound 31A, amino((2S,4R)-2-(3-(4-(3-(3,4-dichlorophenyl)propoxy)-3-(trifluoromethyl)phenyl)-1,2,4-oxadiazol-5-yl)-4-hydroxypyrrolidin-1-yl)methaniminium chloride] | < 5.00 | > 6.00 |
| N=C(N)N1CCC[C@H]1c1nc(-c2ccc(OCCCc3ccc(C(F)(F)F)cc3)c(C(F)(F)F)c2)no1 [Compound 32A, (S)-amino(2-(3-(3-(trifluoromethyl)-4-(3-(4-(trifluoromethyl)phenyl)propoxy)phenyl)-1,2,4-oxadiazol-5-yl)pyrrolidin-1-yl)methaniminium chloride] | < 5.00 | > 6.00 |
| N=C(N)N1C[C@H](O)C[C@H]1c1nc(-c2ccc(OCCCc3ccc(C(F)(F)F)cc3)c(C(F)(F)F)c2)no1 [Compound 33A, amino((2S,4R)-4-hydroxy-2-(3-(3-(trifluoromethyl)-4-(3-(4-(trifluoromethyl)phenyl)propoxy)phenyl)-1,2,4-oxadiazol-5-yl)pyrrolidin-1-yl)methaniminium chloride] | < 5.00 | > 6.00 |
| N=C(N)N1CCC[C@H]1c1nc(-c2ccc(CCC3CC3)c(C(F)(F)F)c2)no1 [Compound 38A, (S)-2-(3-(4-(2-cyclopropylethyl)-3-(trifluoromethyl)phenyl)-1,2,4-oxadiazol-5-yl)pyrrolidine-1-carboximidamide hydrochloride] | < 5.00 | 5.00 to 6.00 |
| N=C(N)N1CCC[C@H]1c1nc(-c2ccc(CCc3ccc(C(F)(F)F)cc3)c(C(F)(F)F)c2)no1 [Compound 39A, (S)-2-(3-(3-(trifluoromethyl)-4-(4-(trifluoromethyl)phenethyl)phenyl)-1,2,4-oxadiazol-5-yl)pyrrolidine-1-carboximidamide hydrochloride] | < 5.00 | > 6.00 |

Next, values leading:

| pKi [1] | pKi [2] | Compound |
| --- | --- | --- |
| 5.00 to 6.00 | > 6.00 | N=C(N)N1CC[C@H](O)[C@H]1c1nc(-c2ccc(OCCCc3ccc(C(F)(F)F)cc3)c(C(F)(F)F)c2)no1 [Compound 22A, amino((2S,3S)-3-hydroxy-2-(3-(3-(trifluoromethyl)-4-(3-(4-(trifluoromethyl)phenyl)propoxy)phenyl)-1,2,4-oxadiazol-5-yl)pyrrolidin-1-yl)methaniminium chloride] |
| 5.00 to 6.00 | > 6.00 | N=C(N)N1CC[C@H](O)[C@H]1c1nc(-c2ccc(OCCc3ccc(C(F)(F)F)cc3)c(C(F)(F)F)c2)no1 [Compound 23A, amino((2S,3S)-3-hydroxy-2-(3-(3-(trifluoromethyl)-4-(4-(trifluoromethyl)phenethoxy)phenyl)-1,2,4-oxadiazol-5-yl)pyrrolidin-1-yl)methaniminium chloride] |
| 5.00 to 6.00 | > 6.00 | N=C(N)N1CC[C@H](O)[C@H]1c1nc(-c2ccc(OCc3ccc(C(F)(F)F)cc3)c(C(F)(F)F)c2)no1 [Compound 24A, amino((2S,3S)-3-hydroxy-2-(3-(3-(trifluoromethyl)-4-((4-(trifluoromethyl)benzyl)oxy)phenyl)-1,2,4-oxadiazol-5-yl)pyrrolidin-1-yl)methaniminium chloride] |
| 5.00 to 6.00 | > 6.00 | CCCc1ccc(CCc2ccc(-c3noc([C@@H]4[C@@H](O)CCN4C(=N)N)n3)cc2C(F)(F)F)cc1 [Compound 34A, (2S,3S)-3-hydroxy-2-(3-(4-(4-propylphenethyl)-3-(trifluoromethyl)phenyl)-1,2,4-oxadiazol-5-yl)pyrrolidine-1-carboximidamide hydrochloride] |
| < 5.00 | > 6.00 | CCCc1ccc(CCc2ccc(-c3noc([C@@H]4CCCN4C(=N)N)n3)cc2C(F)(F)F)cc1 [Compound 35A, (S)-2-(3-(4-(4-propylphenethyl)-3-(trifluoromethyl)phenyl)-1,2,4-oxadiazol-5-yl)pyrrolidine-1-carboximidamide hydrochloride] |
| < 5.00 | > 6.00 | CCCCc1ccc(CCc2ccc(-c3noc([C@@H]4CCCN4C(=N)N)n3)cc2C(F)(F)F)cc1 [Compound 36A, (S)-2-(3-(4-(4-butylphenethyl)-3-(trifluoromethyl)phenyl)-1,2,4-oxadiazol-5-yl)pyrrolidine-1-carboximidamide hydrochloride] |
| 5.00 to 6.00 | > 6.00 | CCCCc1ccc(CCc2ccc(-c3noc([C@@H]4[C@@H](O)CCN4C(=N)N)n3)cc2C(F)(F)F)cc1 [Compound 37A, (2S,3S)-2-(3-(4-(4-butylphenethyl)-3-(trifluoromethyl)phenyl)-1,2,4-oxadiazol-5-yl)-3-hydroxypyrrolidine-1-carboximidamide hydrochloride] |
| 5.00 to 6.00 | > 6.00 | N=C(N)N1CC[C@H](O)[C@H]1c1nc(-c2ccc(CCc3ccc(C(F)(F)F)cc3)c(C(F)(F)F)c2)no1 [Compound 40A, (2S,3S)-3-hydroxy-2-(3-(3-(trifluoromethyl)-4-(4-(trifluoromethyl)phenethyl)phenyl)-1,2,4-oxadiazol-5-yl)pyrrolidine-1-carboximidamide hydrochloride] |
| 5.00 to 6.00 | > 6.00 | COc1ccc(CCc2ccc(-c3noc([C@@H]4[C@@H](O)CCN4C(=N)N)n3)cc2C(F)(F)F)cc1 [Compound 41A, (2S,3S)-3-hydroxy-2-(3-(4-(4-methoxyphenethyl)-3-(trifluoromethyl)phenyl)-1,2,4-oxadiazol-5-yl)pyrrolidine-1-carboximidamide hydrochloride] |
